According to US9193695B2, “1, 2, 4-triazolone derivative and use thereof as an antagonist on the arginine-vasopressin 1B receptor” (TAISHO PHARMACEUTICAL CO., LTD., priority 2010, dated 2015):
pIC50: −log10 of the molar value. Structures can show the parent of a compound that is named as a salt.

target: T1, Human V1b receptor (Homo sapiens, UniProt P47901); assay: Binding test for V1b receptor ([3H]AVP displacement, crude membrane preparation); design: expressed in transfected cells; host or cells: 293FT cells (Invitrogen), transient expression; crude membrane preparation; settings: [3H]AVP 0.4 to 1 nmol/L; membranes of 293FT cells transiently expressing human V1b receptor; room temperature, 60 minutes
T1 sequence (P47901 1-424): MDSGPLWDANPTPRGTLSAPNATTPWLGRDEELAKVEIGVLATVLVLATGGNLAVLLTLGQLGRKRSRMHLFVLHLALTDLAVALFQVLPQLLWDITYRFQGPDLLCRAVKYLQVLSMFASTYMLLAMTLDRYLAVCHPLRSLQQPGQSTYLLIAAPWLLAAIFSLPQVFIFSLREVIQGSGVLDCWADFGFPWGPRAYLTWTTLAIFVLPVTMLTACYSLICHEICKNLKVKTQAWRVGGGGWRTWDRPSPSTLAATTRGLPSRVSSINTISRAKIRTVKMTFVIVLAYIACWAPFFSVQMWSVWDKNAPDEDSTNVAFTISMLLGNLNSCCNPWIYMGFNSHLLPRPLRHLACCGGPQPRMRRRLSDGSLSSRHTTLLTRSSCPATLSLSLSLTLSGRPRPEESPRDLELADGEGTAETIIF
Method: Binding Test for V1b Receptor
Human V1b receptor was transiently expressed in 293FT cells (Invitrogen). The cells were collected and were homogenated in a 15 mmol/L tris-hydrochloric acid buffer (pH 7.4, containing 2 mmol/L magnesium chloride, 0.3 mmol/L ethylenediaminetetracetic acid, and 1 mmol/L glycol ether diaminetetraacetic acid). The resulting homogenate was centrifuged at 50,000×g at 4° C. for 20 minutes. The precipitate was resuspended in a 75 mmol/L tris-hydrochloric acid buffer (pH 7.4, containing 12.5 mmol/L magnesium chloride, 0.3 mmol/L ethylenediaminetetracetic acid, 1 mmol/L glycol ether diamine tetraacetic acid, and 250 mmol/L sucrose) to give a crude membrane preparation, which was stored at −80° C. until the binding test. In the binding test, the crude membrane preparation was diluted with a 50 mmol/L tris-hydrochloric acid buffer (pH 7.4, containing 10 mmol/L magnesium chloride and 0.1% bovine serum albumin), and test compound was serially diluted with DMSO. The diluted crude membrane preparation was incubated with each test compound (final concentration of 0.01 nmol/L to 1 μmol/L) and [^3H]AVP (final concentration: 0.4 to 1 nmol/L) at room temperature for 60 minutes. After the incubation, the mixture was suction filtered through a GF/C filter pretreated with 0.3% polyethyleneimine. The GF/C filter was dried, and a scintillator was added thereto. The radioactivity remaining on the filter was measured using TopCount (PerkinElmer Inc.). The radioactivity in the presence of 10 μmol/L of unlabeled AVP was defined as 0%, and the radioactivity in the absence of unlabeled AVP was defined as 100%. A dose-response curve was plotted from radioactivities in the presence of a test compound at various concentrations, and the 50% inhibitory concentration (IC50 value) of the compound was calculated.

| Compound | pIC50 |
| --- | --- |
| CC(C)(C)NC(=O)Cn1c(-c2cccc(Cl)c2)nn(-c2ccc(CCN3C4CCC3COC4)cn2)c1=O [Ad-18, N-Tert-Butyl-2-[3-(3-chlorophenyl)-1-{5-[2-(3-oxa-8-azabicyclo[3.2.1]oct-8-yl)ethyl]pyridin-2-yl}-5-oxo-1,5-dihydro-4H-1,2,4-triazol-4-yl]acetamide] | 8.59 |
| COc1cccc(-c2nn(-c3ccc(CCN4C5CCC4COC5)cc3)c(=O)n2CC(=O)NC(C)C)c1 [Ba-3, 2-[3-(3-Methoxyphenyl)-1-{4-[2-(3-oxa-8-azabicyclo[3.2.1]oct-8-yl)ethyl]phenyl}-5-oxo-1,5-dihydro-4H-1,2,4-triazol-4-yl]-N-(propan-2-yl)acetamide] | 8.03 |
| COc1cccc(-c2nn(-c3ccc(CCN4C5CCC4COC5)cn3)c(=O)n2CC(=O)NC(C)(C)C)c1 [Bd-2, N-Tert-Butyl-2-[3-(3-methoxyphenyl)-1-{5-[2-(3-oxa-8-azabicyclo[3.2.1]oct-8-yl)ethyl]pyridin-2-yl}-5-oxo-1,5-dihydro-4H-1,2,4-triazol-4-yl]acetamide] | 8.44 |
| COc1cccc(-c2nn(-c3ccc(CC(C)N4C5CCC4COC5)cc3)c(=O)n2CC(=O)NC(C)(C)C)c1 (centres unmarked) [Bd-3, N-Tert-Butyl-2-[3-(3-methoxyphenyl)-1-{4-[2-(3-oxa-8-azabicyclo[3.2.1]oct-8-yl)propyl]phenyl}-5-oxo-1,5-dihydro-4H-1,2,4-triazol-4-yl]acetamide] | 9.68 |
| COc1cccc(-c2nn(-c3ccc(CC(C)N4C5CCC4COC5)cn3)c(=O)n2CC(=O)NC(C)(C)C)c1 (centres unmarked) [Bd-4, N-Tert-Butyl-2-[3-(3-methoxyphenyl)-1-{5-[2-(3-oxa-8-azabicyclo[3.2.1]oct-8-yl)propyl]pyridin-2-yl}-5-oxo-1,5-dihydro-4H-1,2,4-triazol-4-yl]acetamide] | 9.36 |
| COc1cc(-c2nn(-c3ccc(CCN4C5CCC4COC5)cc3)c(=O)n2CC(=O)NC(C)C)ccc1F [Ca-5, 2-[3-(4-Fluoro-3-methoxyphenyl)-1-{4-[2-(3-oxa-8-azabicyclo[3.2.1]oct-8-yl)ethyl]phenyl}-5-oxo-1,5-dihydro-4H-1,2,4-triazol-4-yl]-N-(propan-2-yl)acetamide] | 8.36 |
| CCCC1CCN(CCc2ccc(-n3nc(-c4ccc(F)c(OC)c4)n(CC(=O)NC(C)C)c3=O)cc2)CC1 [Ca-12, 2-[3-(4-Fluoro-3-methoxyphenyl)-5-oxo-1-{4-[2-(4-propylpiperidin-1-yl)ethyl]phenyl}-1,5-dihydro-4H-1,2,4-triazol-4-yl]-N-(propan-2-1)acetamide] | 6.00 to 7.00 |
| COc1cc(-c2nn(-c3ccc(CCN4CCC(C(N)=O)CC4)cc3)c(=O)n2CC(=O)NC(C)C)ccc1F [Ca-13, 1-[2-(4-{3-(4-Fluoro-3-methoxyphenyl)-5-oxo-4-[2-oxo-2-(propan-2-ylamino)ethyl]-4,5-dihydro-1H-1,2,4-triazol-1-yl}phenyl)ethyl]piperidine 4-carboxamide] | 6.00 to 7.00 |
| COc1cc(-c2nn(-c3ccc(CCN4CCC(N(C)C)CC4)cc3)c(=O)n2CC(=O)NC(C)C)ccc1F [Ca-14, 2-[1-(4-{2-[4-(Dimethylamino)piperidin-1-yl]ethyl}phenyl)-3-(4-fluoro-3-methoxyphenyl)-5-oxo-1,5-dihydro-4H-1,2,4-triazol-4-yl]-N-(propan-2-yl)acetamide] | 6.00 to 7.00 |
| COc1cc(-c2nn(-c3ccc(CCN4CCC(NC(C)=O)CC4)cc3)c(=O)n2CC(=O)NC(C)C)ccc1F [Ca-17, 2-[1-(4-{2-[4-(Acetylamino)piperidin-1-yl]ethyl}phenyl)-3-(4-fluoro-3-methoxyphenyl)-5-oxo-1,5-dihydro-4H-1,2,4-triazol-4-yl]-N-(propan-2-yl)acetamide] | 6.00 to 7.00 |
| COc1cc(-c2nn(-c3ccc(CCN4CCC(C(F)(F)F)CC4)cc3)c(=O)n2CC(=O)NC(C)C)ccc1F [Ca-19, 2-[3-(4-Fluoro-3-methoxyphenyl)-5-oxo-1-(4-{2-[4-(trifluoromethyl)piperidin-1-yl]ethyl}phenyl)-1,5-dihydro-4H-1,2,4-triazol-4-yl]-N-(propan-2-yl)acetamide trifluoroacetate] | 6.00 to 7.00 |

The next lines start with the values.

| pIC50 | Compound |
| --- | --- |
| 6.44 | CC(C)NC(=O)Cn1c(-c2cccc(Cl)c2)nn(-c2ccc(CCN)cc2)c1=O [Ad-21, 2-[3-(3-Chlorophenyl)-1-[4-(2-aminoethyl)phenyl]-5-oxo-1,5-dihydro-4H-1,2,4-triazol-4-yl]-N-(propan-2-yl)acetamide] |
| 8.39 | COc1cccc(-c2nn(-c3ccc(CCN4CCOCC4)cn3)c(=O)n2CC(=O)NC(C)(C)C)c1 [Bd-1, N-Tert-Butyl-2-[3-(3-methoxyphenyl)-1-{5-[2-(morpholin-4-yl)ethyl]pyridin-2-yl}-5-oxo-1,5-dihydro-4H-1,2,4-triazol-4-yl]acetamide] |
| 7.59 | COc1cc(-c2nn(-c3ccc(CCN4CCCCC4)cc3)c(=O)n2CC(=O)NC(C)C)ccc1F [Ca-1, 2-[3-(4-Fluoro-3-methoxyphenyl)-5-oxo-1-{4-[2-(piperidin-1-yl)ethyl]phenyl}-1,5-dihydro-4H-1,2,4-triazol-4-yl]-N-(propan-2-yl)acetamide] |
| 7.00 to 8.00 | COc1cc(-c2nn(-c3ccc(CCN4CC5(CCOCC5)C4)cc3)c(=O)n2CC(=O)NC(C)C)ccc1F [Ca-6, 2-[3-(4-Fluoro-3-methoxyphenyl)-1-{4-[2-(7-oxa-2-azaspiro[3.5]non-2-yl)ethyl]phenyl}-5-oxo-1,5-dihydro-4H-1,2,4-triazol-4-yl]-N-(propan-2-yl)acetamide] |
| 7.00 to 8.00 | COc1cc(-c2nn(-c3ccc(CCN4CC=CCC4)cc3)c(=O)n2CC(=O)NC(C)C)ccc1F [Ca-7, 2-[1-{4-[2-(3,6-Dihydropyridin-1(2H)-yl)ethyl]phenyl}-3-(4-fluoro-3-methoxyphenyl)-5-oxo-1,5-dihydro-4H-1,2,4-triazol-4-yl]-N-(propan-2-yl)acetamide] |
| > 8.00 | COc1cc(-c2nn(-c3ccc(CCN4CCSCC4)cc3)c(=O)n2CC(=O)NC(C)C)ccc1F [Ca-8, 2-[3-(4-Fluoro-3-methoxyphenyl)-5-oxo-1-{4-[2-(thiomorpholin-4-yl)ethyl]phenyl}-1,5-dihydro-4H-1,2,4-triazol-4-yl]-N-(propan-2-yl)acetamide] |
| 7.00 to 8.00 | COc1cc(-c2nn(-c3ccc(CCN4CCC(C)CC4)cc3)c(=O)n2CC(=O)NC(C)C)ccc1F [Ca-9, 2-[3-(4-Fluoro-3-methoxyphenyl)-1-{4-[2-(4-methylpiperidin-1-yl)ethyl]phenyl}-5-oxo-1,5-dihydro-4H-1,2,4-triazol-4-yl]-N-(propan-2-yl)acetamide] |
| 6.00 to 7.00 | COc1cc(-c2nn(-c3ccc(CCN4CCC(C#N)CC4)cc3)c(=O)n2CC(=O)NC(C)C)ccc1F [Ca-10, 2-[1-{4-[2-(4-Cyanopiperidin-1-yl)ethyl]phenyl}-3-(4-fluoro-3-methoxyphenyl)-5-oxo-1,5-dihydro-4H-1,2,4-triazol-4-yl]-N-(propan-2-yl)acetamide] |
| 7.00 to 8.00 | COc1cc(-c2nn(-c3ccc(CCN4CCCC(OC)C4)cc3)c(=O)n2CC(=O)NC(C)C)ccc1F (centres unmarked) [Ca-11, 2-[3-(4-Fluoro-3-methoxyphenyl)-1-{4-[2-(3-methoxypiperidin-1-yl)ethyl]phenyl}-5-oxo-1,5-dihydro-4H-1,2,4-triazol-4-yl]-N-(propan-2-yl)acetamide] |
| 7.00 to 8.00 | COc1cc(-c2nn(-c3ccc(CCN4CCC5CCCCC5C4)cc3)c(=O)n2CC(=O)NC(C)C)ccc1F (centres unmarked) [Ca-15, 2-[3-(4-Fluoro-3-methoxyphenyl)-1-{4-[2-(octahydroisoquinolin-2(1H)-yl)ethyl]phenyl}-5-oxo-1,5-dihydro-4H-1,2,4-triazol-4-yl]-N-(propan-2-yl)acetamide] |
| 7.00 to 8.00 | COc1cc(-c2nn(-c3ccc(CCN4CCC(F)CC4)cc3)c(=O)n2CC(=O)NC(C)C)ccc1F [Ca-16, 2-[3-(4-Fluoro-3-methoxyphenyl)-1-{4-[2-(4-fluoropiperidin-1-yl)ethyl]phenyl}-5-oxo-1,5-dihydro-4H-1,2,4-triazol-4-yl]-N-(propan-2-yl)acetamide trifluoroacetate] |
| 7.00 to 8.00 | COc1cc(-c2nn(-c3ccc(CCN4CCC(F)(F)CC4)cc3)c(=O)n2CC(=O)NC(C)C)ccc1F [Ca-18, 2-[1-{4-[2-(4,4-Difluoropiperidin-1-yl)ethyl]phenyl}-3-(4-fluoro-3-methoxyphenyl)-5-oxo-1,5-dihydro-4H-1,2,4-triazol-4-yl]-N-(propan-2-yl)acetamide trifluoroacetate] |
